What all share (experiment): relative viability (nuclei count vs DMSO), 5 days (fraction); higher = more cells survive
Compound in the assay “Nelarabine + Lapatinib”: COc1nc(N)nc2c1ncn2[C@@H]1O[C@H](CO)[C@@H](O)[C@@H]1O [Nelarabine] + CS(=O)(=O)CCNCc1ccc(-c2ccc3ncnc(Nc4ccc(OCc5cccc(F)c5)c(Cl)c4)c3c2)o1 [Lapatinib] (partner 2 µM)
In a few lines:
(§1)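 The day after seeding in 1536-well plates, lung cancer cell lines were treated by pin tool with a single drug, or with a fixed anchor-drug dose together with five library-drug doses (not always all listed) in √10 steps. After 5 days, a combined fix-and-stain solution (final 0.05% Triton X-100, 1% formaldehyde, 1 ug/ml Hoechst) was added. Nuclei counted on 4× images gave relative viability as treated counts over vehicle counts, reported as the median of duplicate plates.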

Compound in the assay “Adavosertib + Alpelisib”: C=CCn1c(=O)c2cnc(Nc3ccc(N4CCN(C)CC4)cc3)nc2n1-c1cccc(C(C)(C)O)n1 [Adavosertib] + Cc1nc(NC(=O)N2CCC[C@H]2C(N)=O)sc1-c1ccnc(C(C)(C)C(F)(F)F)c1 [Alpelisib] (partner 2 µM)
In a few lines: as §1

Compound in the assay “Nelarabine + Alpelisib”: COc1nc(N)nc2c1ncn2[C@@H]1O[C@H](CO)[C@@H](O)[C@@H]1O [Nelarabine] + Cc1nc(NC(=O)N2CCC[C@H]2C(N)=O)sc1-c1ccnc(C(C)(C)C(F)(F)F)c1 [Alpelisib] (partner 2 µM)
Summed up:
as §1

Compound in the assay “Adavosertib + Decitabine”: C=CCn1c(=O)c2cnc(Nc3ccc(N4CCN(C)CC4)cc3)nc2n1-c1cccc(C(C)(C)O)n1 [Adavosertib] + Nc1ncn([C@H]2C[C@H](O)[C@@H](CO)O2)c(=O)n1 [Decitabine] (partner 2 µM)
In a few lines: as §1

NCI-H1792: the relative viability in the assay with Nelarabine + Lapatinib (first compound 0.01 µM) is 0.913; with Nelarabine + Lapatinib (first compound 0.1 µM), 1.45; in the assay with Nelarabine + Lapatinib (first compound 0.3162 µM), 1.03; with Nelarabine + Lapatinib (first compound 1 µM) it was 0.967; with Adavosertib + Alpelisib (first compound 0.01 µM) it was 0.67; with Adavosertib + Alpelisib (first compound 0.03162 µM), 0.649. Moreover, the relative viability with Adavosertib + Alpelisib (first compound 0.1 µM) was found to be 0.697; in the assay with Adavosertib + Alpelisib (first compound 0.3162 µM), 0.48; with Nelarabine + Alpelisib (first compound 0.01 µM) it was 0.908; with Nelarabine + Alpelisib (first compound 0.1 µM) it was 0.83; with Nelarabine + Alpelisib (first compound 0.3162 µM), 0.688; with Nelarabine + Alpelisib (first compound 1 µM), 0.828. For the same cell line, the relative viability with Adavosertib + Decitabine (first compound 0.01 µM) is 0.507; with Adavosertib + Decitabine (first compound 0.03162 µM), 0.596; with Adavosertib + Decitabine (first compound 0.1 µM), 0.645; with Adavosertib + Decitabine (first compound 0.3162 µM), 0.669.

Values taken from the supplement of paper PMC10307832.
